Measured values reported in patent US11534412B2, “Application of totarol and pharmaceutical composition containing totarol” (Emergopharm SP. Z O.O. SP.K., priority 2017, dated 2022).

Legend:
[1] = test system: human vaginal epithelial cells of the A-431 cell line; assay type: cell-based
Procedure: Test of totarol impact on the human vaginal epithelial cells of the A-431 cell line (ATCC® The study was carried out using the following test: Annexin-V-Fluos (Roche, Mannheim, Germany), during incubation for 2, 8 and 24 hours, under in vitro conditions, according to the instructions of the test's manufacturer. The totarol sample was prepared by dissolution of 3 mg of totarol in 3 ml of 100% DMI.
The cultivation time for the A-431 cell line was 20 days. The culture was carried out at a temperature of 37° C. in an atmosphere containing 10% CO2, on a DMEM culture medium (Institute of Immunology and Experimental Therapy PAS [IITD PAN], Wroclaw), with an addition of 10% of foetal bovine serum (FBS, Sigma-Aldrich). The culture fluid were being replaced regularly every 48 hours. After achieving a decantable growth or the so-called “monolayer”, the cells were passaged using (for approx. 10 min) 0.25% trypsin (Sigma-Aldrich). Then, the obtained tissue line was passed to 24-well plates (TPP), adjusting their densities to the value of 5×10^5 per well. The tissue culture of the studied lines was carried out for 3 next days on the surface of sterile microscope slides placed on the bottom of a 24-well plate, until a decantable growth was obtained on the surface of the microscope slides. After obtaining the so-called “monolayer”, the cells were washed with PBS without Ca^2+ and Mg^2+ ions (IITD PAN, Wroclaw), and poured with 700 µl of fresh DMEM medium with 10% FBS, together with 300 μl of properly prepared totarol. • Negative control: 1000 μl of fresh DMEM medium with 10% FBS. • Solvent control: 700 μl of fresh DMEM medium with 10% FBS+300 μl of DMI solvent. • Necrosis positive control: 900 μl of fresh DMEM medium with 10% FBS+100 μl H2O2 (30%). The proper examination using the Annexin-V-Fluos test causes green staining of apoptotic cells. […] This dye has an ability to penetrate the cell's interior freely only through a damaged cellular membrane, staining the interior red. In the case of a lack of damages of the cellular membrane, propidium iodide remains on its surface, forming a characteristic red “halo” around the cell. After a corresponding study time, i.e. 2, 8, and 24 hours, the culture fluid was removed, the content was washed with PBS (pre-heated to a temperature of 37° C.) twice. Then, 100 μl of the fluorescent stains mixture including in the Annexin-V-Fluos (Roche) kit were applied on the surface of each microscope slide (placed in a culture well) and additionally, Hoechst stain was used (cellular DNA staining). The staining procedure was carried out according to the manufacturer's recommendations. The culture together with the stains applied onto it were incubated at room temperature for 20 min. The intensity of light emitted by the cells stained with the individual stains was observed using a fluorescent microscope at the wavelength of 494-520 nm, using 400× magnification. The cells were counted in five visual fields, and the results were averaged. The reliability of the tests carried out is confirmed by hydrogen peroxide used as a positive control, causing a distinct necrosis process already after 2 hours of incubation. Data analyses were carried out on the basis of the average number of cells from five visual fields in the individual times (2, 8, and 24 h). The results are presented in Table 6 and in the form of photographic documentation—FIGS. 1, 2, 3, 4.

Gardnerella vaginalis = settings: cited from earlier work

Row | Structure (SMILES) | Alive cells [1] | Apopt. cells [1] | Necrot. Cells [1] | Necrot. cells [1] | apoptosis and necrosis in epithelial cells, photographic documentation [1] | metronidazole-resistant strain percentage (Gardnerella vaginalis; Goldstein et al., 1993) [%] | percentage of resistant strains (Gardnerella vaginalis; Goldstein et al., 2002) [%] | studied strains characterised by resistance to metronidazole (Gardnerella vaginalis; Poland, 67 strains isolated from 604 females (46 out of 67)) [%] | resistance of Gardnerella vaginalis strains to metronidazole (Gardnerella vaginalis; studies published in 2007) [%]
1 | OO [Necrosis positive control, reference compound] | 0 | 0 | 100 | 100 | Necrotic cells |  |  |  | 
2 | Cc1ncc([N+](=O)[O-])n1CCO [metronidazole] |  |  |  |  |  | 20 | 29 | 68.7 | 70
